Earlier results as cited in PMC6359455, “Partial Solvation Parameters of Drugs as a New Thermodynamic Tool for Pharmaceutics” (Pharmaceutics, 2019).

Set-up: method as in doi:10.1021/acs.iecr.7b02286; Vx (McGowan volume LSER descriptor): unit not given here
Conditions: common solvents; cited from earlier work

Structure (SMILES)	A (acidity LSER descriptor)	E (excess refractivity LSER descriptor)	S (polarity LSER descriptor)	Vx (McGowan volume LSER descriptor)	B (basicity LSER descriptor)
ClC(Cl)Cl [Chloroform]	0.150	0.430	0.490	0.617	–
Cc1ccccc1 [Toluene]	–	0.600	0.520	0.857	–
CCCCCCCC [n-Octane]	–	–	–	1.236	–
CCCCOC(C)=O [n-Butyl acetate]	–	0.071	0.597	1.028	0.449
CC(C)=O [Acetone]	–	0.180	0.703	0.547	0.493
OCCO [Ethylene glycol]	0.580	0.400	0.900	0.508	0.780
CCCCCC [n-Hexane]	–	–	–	0.954	–
c1ccccc1 [Benzene]	–	0.610	0.520	0.716	–
CCc1ccccc1 [Ethylbenzene]	–	–	0.510	–	–
CO [Methanol]	0.430	0.280	0.439	0.308	0.470
CCC(C)O (stereo not shown) [2-Butanol]	0.330	0.220	0.360	0.731	0.560
CC(C)O [Isopropanol]	0.330	0.210	0.366	0.590	0.560
CCO [Ethanol]	0.370	0.250	0.419	0.449	0.480
ClC(Cl)(Cl)Cl [Carbon tetrachloride]	–	0.460	0.380	0.739	–
C1COCCO1 [1,4-Dioxane]	–	0.330	0.744	0.681	0.635
OC1CCCCC1 [Cyclohexanol]	0.320	0.461	0.557	0.904	0.570
ClCCl [Dichloromethane]	0.100	0.390	0.574	0.494	–
CCCCCCCCCC [n-Decane]	–	–	–	1.518	–
CCCO [1-Propanol]	–	0.240	0.420	0.590	–
CCCCCCCCO [1-Octanol]	0.370	0.200	0.421	1.295	0.480
CCC(C)=O [Methyl ethyl ketone]	–	0.170	0.697	0.688	0.510
O [Water]	0.820	0.000	0.450	0.167	0.350
C1CCOC1 [Tetrahydrofuran]	–	0.291	0.524	0.622	0.479
CCCCCCCCC [n-Nonane]	–	–	–	1.377	–
C1CCCCC1 [Cyclohexane]	–	0.310	0.010	0.845	–
Oc1ccccc1 [Phenol]	0.600	0.808	0.890	0.775	0.300
CCCCCCC [n-Heptane]	–	–	–	1.095	–
CC#N [Acetonitrile]	0.040	0.241	0.900	0.404	0.330
CCCCO [1-Butanol]	–	0.220	0.420	0.731	–
CCOC(C)=O [Ethyl acetate]	–	0.110	0.618	0.747	0.450
